From patent publication US20250197351A1, “C4-CARBOXYLIC ACID-S[…] DERIVATIVES AND METHODS OF USING” (priority 2022, published 2025) come the findings set out here.

Data set [1] is described as follows: Mouse pharmacokinetic (PK) study, parent compound and psilocin metabolite in plasma. It counts as in vivo. As to conditions: for bioavailability: male, C57Bl/6, mouse, plasma, po; for bioavailability / F(%): parent compound, AUC0-tlast used; for AUC0-inf/Dose / AUC0-tlast/Dose / Cmax/Dose: parent compound in plasma; for Plasma concentration of parent compound / Plasma concentration of psilocin: individual animals. The source says: Briefly, the procedure was as follows. […] 19, 2022.

The next data set deals with T1, 5-HT1A receptor (Homo sapiens, UniProt P08908).
T1 construct: host or cells: CHO-K1 (co-expressing Ga15)
T1 sequence (P08908 1-422): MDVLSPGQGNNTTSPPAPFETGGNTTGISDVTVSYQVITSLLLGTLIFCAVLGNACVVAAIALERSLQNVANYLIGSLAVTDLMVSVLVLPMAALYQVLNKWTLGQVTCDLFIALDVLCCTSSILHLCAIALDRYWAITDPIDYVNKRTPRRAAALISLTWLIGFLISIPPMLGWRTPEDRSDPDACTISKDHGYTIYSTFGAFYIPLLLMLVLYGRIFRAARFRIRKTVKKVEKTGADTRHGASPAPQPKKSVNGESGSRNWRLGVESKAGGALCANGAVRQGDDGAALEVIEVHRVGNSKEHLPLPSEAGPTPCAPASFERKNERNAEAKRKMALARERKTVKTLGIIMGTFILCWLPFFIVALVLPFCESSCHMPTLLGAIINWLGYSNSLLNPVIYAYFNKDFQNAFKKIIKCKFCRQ
Nature of the data set: cAMP-Glo assay of 5-HT1A receptor modulation, CHO-K1/5-HT1A/Ga15 (+5-HT1A) vs CHO-K1/Ga15 (−5-HT1A) cells. It counts as cell-based. As to conditions: +5-HT1A vs −5-HT1A CHO-K1 cells; 4 μM forskolin; increasing ligand concentration.

Data set [2] concerns the target T2, 5-HT2A receptor (5-HT2AR) (Mus musculus, UniProt P35363).
T2 construct: host or cells: C57BL/6 mice, in vivo (neuronal receptor)
As to the kind of experiment: Drug-induced Head Twitch Response (HTR). To be noted: 1 mg/kg i.p., 15-to-30-minute window post-drug, relative to vehicle. It counts as in vivo.

Another data set deals with 5-HT2A receptor (Homo sapiens, UniProt P28223). As to the kind of experiment: [3H]ketanserin competition binding assay (SPA). To be noted: 1 nM [3H]ketanserin; control ligands.
5-HT2A receptor, sequence (P28223 whole entry): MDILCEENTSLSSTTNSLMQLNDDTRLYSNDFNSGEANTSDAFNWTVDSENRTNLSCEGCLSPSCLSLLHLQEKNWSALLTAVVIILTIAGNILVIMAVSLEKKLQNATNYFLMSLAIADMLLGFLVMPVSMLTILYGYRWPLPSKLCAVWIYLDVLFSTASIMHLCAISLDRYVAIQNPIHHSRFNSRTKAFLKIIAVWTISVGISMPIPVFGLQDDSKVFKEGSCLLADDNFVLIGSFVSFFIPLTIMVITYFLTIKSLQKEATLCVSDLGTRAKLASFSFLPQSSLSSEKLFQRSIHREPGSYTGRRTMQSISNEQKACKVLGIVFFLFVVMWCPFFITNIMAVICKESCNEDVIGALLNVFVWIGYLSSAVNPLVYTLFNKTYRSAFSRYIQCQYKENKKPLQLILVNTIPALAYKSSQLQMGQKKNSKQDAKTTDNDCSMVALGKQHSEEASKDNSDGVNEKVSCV
Setting [3] is: 1 mg/kg i.v., each animal, 1 mg/kg.
Setting [4] is: 1 mg/kg p.o., each animal, 1 mg/kg.
Setting [5] is: 3 mg/kg p.o., each animal, 3 mg/kg.
Setting [6] is: 10 mg/kg p.o., each animal, 10 mg/kg.
The mark [7] stands for this setting: mouse, prodrug 1 mg/kg i.v., 8 h, BLQ = below 0.2 ng/mL.
[8] abbreviates: mouse, prodrug 1 mg/kg p.o. (psilocybin: 1.56 mg/kg), 8 h, BLQ = below 0.2 ng/mL.
Where [9] appears, read: mouse, prodrug 1 mg/kg p.o. (psilocybin: 1.56 mg/kg), 24 h, BLQ = below 0.2 ng/mL.
Setting [10] is: mouse, prodrug 3 mg/kg p.o., 24 h, BLQ = below 0.2 ng/mL.
Where [11] appears, read: mouse, prodrug 10 mg/kg p.o., 24 h, BLQ = below 0.2 ng/mL.

The bioavailability is the share of a dose that reaches the circulation, judged against a reference dose that is usually intravenous.

Where “and” joins values, the source holds several entries; their conditions need not be identical. Equal entries are not always repeated.

T2 sequence (P35363 whole entry): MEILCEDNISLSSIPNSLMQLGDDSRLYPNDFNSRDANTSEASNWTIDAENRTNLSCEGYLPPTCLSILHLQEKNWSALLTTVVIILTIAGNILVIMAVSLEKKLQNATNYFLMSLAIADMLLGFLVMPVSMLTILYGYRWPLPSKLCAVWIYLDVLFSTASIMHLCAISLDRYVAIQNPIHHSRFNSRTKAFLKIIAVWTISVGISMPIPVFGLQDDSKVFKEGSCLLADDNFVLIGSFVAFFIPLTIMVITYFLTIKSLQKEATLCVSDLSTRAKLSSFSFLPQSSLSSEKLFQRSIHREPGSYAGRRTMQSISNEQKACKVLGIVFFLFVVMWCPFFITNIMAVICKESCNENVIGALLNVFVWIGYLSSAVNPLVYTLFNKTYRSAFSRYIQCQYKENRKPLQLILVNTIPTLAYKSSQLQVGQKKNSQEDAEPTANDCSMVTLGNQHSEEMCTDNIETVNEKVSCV

On to `CN(C)CCc1c[nH]c2cccc(OC(=O)c3ccc(Br)cc3)c12` [C(I)], for which the bioavailability in data set [1] (1 mg/kg, 1 mg/kg p.o., M37 (i.v. group) considered as an outlier, mean ± SD) worked out at 2.3 ± 1.76%; in data set [1] (3 mg/kg, 3 mg/kg p.o., M37 (i.v. group) considered as an outlier, mean ± SD) it was 3.18 ± 0.189%; in data set [1] (3 mg/kg, 3 mg/kg p.o., if M37 (i.v. group) is considered as an outlier, each animal), 3.02%; in data set [1] (10 mg/kg, 10 mg/kg p.o., M37 (i.v. group) considered as an outlier, mean ± SD), 3.22 ± 0.731%; in data set [1] (10 mg/kg, 10 mg/kg p.o., if M37 (i.v. group) is considered as an outlier, each animal) it was 2.71%. Further, the Plasma concentration entry in data set [1] (parent C(I), 1 mg/kg i.v., 8 h, each animal, BLQ = below 0.5 ng/mL, 1 mg/kg) is “BLQ (2×) and No Peak”; in data set [1] (parent C(I), 1 mg/kg p.o., 1 h, each animal, BLQ = below 0.5 ng/mL, 1 mg/kg) it was “BLQ”; in data set [1] (parent C(I), 1 mg/kg p.o., 2 h, each animal, BLQ = below 0.5 ng/mL, 1 mg/kg), “BLQ”; in data set [1] (parent C(I), 1 mg/kg p.o., 4 h, each animal, BLQ = below 0.5 ng/mL, 1 mg/kg), “BLQ”; in data set [1] (parent C(I), 1 mg/kg p.o., 6 h, each animal, BLQ = below 0.5 ng/mL), “BLQ”; in data set [1] (parent C(I), 1 mg/kg p.o., 8 h, each animal, BLQ = below 0.5 ng/mL), “BLQ”. Also, the Plasma concentration entry in data set [1] (parent C(I), 1 mg/kg p.o., 24 h, each animal, BLQ = below 0.5 ng/mL, 1 mg/kg) was “No Peak and No (2×)”; in data set [1] (parent C(I), 3 mg/kg p.o., 1 h, each animal, BLQ = below 0.5 ng/mL, 3 mg/kg), 1.33 ng/mL; in data set [1] (parent C(I), 3 mg/kg p.o., 6 h, each animal, BLQ = below 0.5 ng/mL, 3 mg/kg), 0.250 ng/mL; in data set [1] (parent C(I), 3 mg/kg p.o., 8 h, each animal, BLQ = below 0.5 ng/mL) it was “BLQ”; in data set [1] (parent C(I), 3 mg/kg p.o., 24 h, each animal, BLQ = below 0.5 ng/mL), “No Peak”; in data set [1] (parent C(I), 10 mg/kg p.o., 4 h, each animal, BLQ = below 0.5 ng/mL, 10 mg/kg), 3.01 ng/mL. Besides, the Plasma concentration entry was “No” in data set [1] (parent C(I), 10 mg/kg p.o., 24 h, each animal, BLQ = below 0.5 ng/mL); “BLQ” in data set [1] (psilocin, prodrug 1 mg/kg i.v., 6 h, each animal, BLQ = below 0.2 ng/mL); “BLQ” in data set [1] (psilocin, prodrug 1 mg/kg i.v., 8 h, each animal, BLQ = below 0.2 ng/mL); “BLQ” in data set [1] (psilocin, prodrug 1 mg/kg p.o., 8 h, each animal, BLQ = below 0.2 ng/mL); “No Peak (2×) and BLQ” in data set [1] (psilocin, prodrug 1 mg/kg p.o., 24 h, each animal, BLQ = below 0.2 ng/mL); “No Peak” in data set [1] (psilocin, prodrug 3 mg/kg p.o., 24 h, each animal, BLQ = below 0.2 ng/mL). In data set [1] (psilocin, prodrug 10 mg/kg p.o., 24 h, each animal, BLQ = below 0.2 ng/mL), the Plasma concentration entry is given as “BLQ”. Further, the AUC0-inf/Dose in data set [1] (setting [3]) is 1014 kg·ng·h/mL/mg and 64.4 kg·ng·h/mL/mg and 51.9 kg·ng·h/mL/mg; in data set [1] (1 mg/kg i.v., mean ± SD), 377 ± 552 kg·ng·h/mL/mg. Moreover, the AUC0-tlast/Dose in data set [1] (setting [3]) was 1006 kg·ng·h/mL/mg and 63.7 kg·ng·h/mL/mg and 51.4 kg·ng·h/mL/mg; in data set [1] (1 mg/kg i.v., mean of n = 2 (without the possible outlier M37)), 57.6 (n = 2) h*kg*ng/mL/mg; in data set [1] (1 mg/kg i.v., mean ± SD) it was 374 ± 548 kg·ng·h/mL/mg; in data set [1] (setting [4]) it was 2.09 kg·ng·h/mL/mg and 0.169 kg·ng·h/mL/mg and 1.75 kg·ng·h/mL/mg; in data set [1] (1 mg/kg p.o., mean ± SD), 1.34 ± 1.02 kg·ng·h/mL/mg; in data set [1] (setting [5]) it was 1.75 kg·ng·h/mL/mg and 1.82 kg·ng·h/mL/mg and 1.97 kg·ng·h/mL/mg. The AUC0-tlast/Dose is 1.85 ± 0.110 kg·ng·h/mL/mg in data set [1] (3 mg/kg p.o., mean ± SD); 1.58 kg·ng·h/mL/mg and 1.68 kg·ng·h/mL/mg and 2.36 kg·ng·h/mL/mg in data set [1] (setting [6]); 1.87 ± 0.425 kg·ng·h/mL/mg in data set [1] (10 mg/kg p.o., mean ± SD). Also, the Cmax/Dose in data set [1] (setting [4]) is 0.816 kg·ng/mL/mg and 0.54 kg·ng/mL/mg and 1.28 kg·ng/mL/mg; in data set [1] (1 mg/kg p.o., mean ± SD), 0.877 ± 0.376 kg·ng/mL/mg; in data set [1] (setting [5]) it was 0.650 kg·ng/mL/mg and 0.720 kg·ng/mL/mg and 0.780 kg·ng/mL/mg; in data set [1] (3 mg/kg p.o., mean ± SD), 0.717 ± 0.0651 kg·ng/mL/mg; in data set [1] (setting [6]), 0.720 kg·ng/mL/mg and 0.710 kg·ng/mL/mg and 1.09 kg·ng/mL/mg; in data set [1] (10 mg/kg p.o., mean ± SD), 0.840 ± 0.217 kg·ng/mL/mg. In addition, the “F(%)” value is on record as 3.01% in data set [1] (1 mg/kg p.o., if M37 (i.v. group) is considered as an outlier, each animal, 1 mg/kg) and 2.90% in data set [1] (10 mg/kg p.o., if M37 (i.v. group) is considered as an outlier, each animal, 10 mg/kg). Moreover, the “5-HT1A receptor modulation (reduction of forskolin-induced cAMP)” value at 5-HT1A receptor is “mild receptor modulation at higher ligand concentrations”. Besides, the “Head Twitch Response (HTR) incidence” value in data set [2] was “Elevated incidences of HTR”.

In the case of `COc1ccc(C(=O)Oc2cccc3[nH]cc(CCN(C)C)c23)cc1` [C(V)], the “Detection of parent compound in plasma after i.v. administration” value in data set [1] (mouse, 1 mg/kg i.v.) is reported as “only detectable in i.v. administered animals”. Besides, the “Plasma concentration of parent compound” value in data set [1] (mouse, 1 mg/kg i.v., 0.25 h, BLQ = below 0.5 ng/mL (C(V)), 1 mg/kg) is “BLQ”; in data set [1] (mouse, 1 mg/kg i.v., 0.5 h, BLQ = below 0.5 ng/mL (C(V)), 1 mg/kg), “BLQ and No Peak (2×)”; in data set [1] (mouse, 1 mg/kg i.v., 1 h), “No Peak”; in data set [1] (mouse, 1 mg/kg i.v., 2 h) it was “No Peak”; in data set [1] (mouse, 1 mg/kg i.v., 4 h) it was “No Peak”; in data set [1] (mouse, 1 mg/kg i.v., 6 h), “No Peak”. For the same compound, in data set [1] (mouse, 1 mg/kg i.v., 8 h), the “Plasma concentration of parent compound” value was “No Peak”. For the same compound, in data set [1] (mouse, orally administered, any dose (1, 3, 10 mg/kg)), the “Detection of parent compound in plasma after oral administration” value is listed as “not detectable”. For the same compound, the “Plasma concentration of psilocin” value was “BLQ” in data set [1] (setting [7]); “BLQ” in data set [1] (setting [8]); “No Peak and BLQ (2×)” in data set [1] (setting [9]); “No Peak and BLQ (2×)” in data set [1] (setting [10]); “BLQ (2×) and No Peak” in data set [1] (setting [11]). At 5-HT1A receptor, the “5-HT1A receptor modulation (reduction of forskolin-induced cAMP)” value was “mild receptor modulation at higher ligand concentrations”. The “Head Twitch Response (HTR) incidence” value in data set [2] is “Elevated incidences of HTR”.

Turning to `CN(C)CCc1c[nH]c2cccc(O)c12` [psilocin, reference compound], the “Binding at 5-HT2A receptor in competition assay” value on 5-HT2A receptor is “binding”. Besides, the “5-HT1A receptor modulation (reduction of forskolin-induced cAMP)” value on 5-HT1A receptor is “reduction in cAMP levels”.

As to `CN(C)CCc1c[nH]c2cccc(OC(=O)c3c(F)c(F)c(F)c(F)c3F)c12` [C(VI)], in data set [1] (mouse, any animals at any dose (i.v. and oral)), the “Detection of parent compound in plasma” value is “not detectable in any animals at any dose”. The “Plasma concentration of psilocin” value is “BLQ” in data set [1] (setting [7]); “BLQ” in data set [1] (setting [8]); “BLQ and No Peak (2×)” in data set [1] (setting [9]); “BLQ (2×) and No Peak” in data set [1] (setting [10]); “BLQ” in data set [1] (setting [11]). For the same compound, the “5-HT1A receptor modulation (reduction of forskolin-induced cAMP)” value at 5-HT1A receptor is “no receptor modulation at higher ligand concentrations”. For the same compound, the “Head Twitch Response (HTR) incidence” value in data set [2] was “Elevated incidences of HTR”.

As to `N[C@@H](Cc1c[nH]c2ccccc12)C(=O)O` [tryptophan, reference compound], on 5-HT2A receptor, the “Binding at 5-HT2A receptor in competition assay” value is reported as “no binding”. Moreover, the “5-HT1A receptor modulation (reduction of forskolin-induced cAMP)” value on 5-HT1A receptor was “no reduction in cellular cAMP levels”.
